Converted amounts (≈) assume the structure as drawn. Read-outs that look alike come from different tables or passages of the source.
What was measured:
[1] = system: Propionibacterium acnes (ATCC 11827); test: Minimum inhibitory concentration (MIC) against Propionibacterium acnes (Test Example 1); type: cell-based
Protocol: The minimum inhibitory concentration (MIC) of caryophyllene, cedrene, longifolene, and thujopsene obtained in Preparation Example against Propionibacterium acnes (ATCC 11827) was determined as follows.
The test compound was added to a 4.6% ABCM bouillon aqueous solution (prepared by dissolving 46 g of an ABCM bouillon medium produced by Eiken Kagaku K. K. in 1 l of distilled water) in a concentration of 100 μg/ml, and the solution was stepwise diluted two times with the same medium, followed by sterilization.
A 5 ml aliquot of the solution was put in a test tube and inoculated with 0.1 ml of the culture of Propionibacterium acnes which had been preliminarily cultured so as to have a cell density of 5×10^8 cells/ml. The system was static-cultured under anaerobic conditions at 37° C. for 48 hours, and the turbidity of the cultured system was measured at a wavelength of 600 nm to obtain MIC (μg/ml).

several fungi = conditions: Indian Perfumer, 28(2), 82-87 (1984); cited from earlier work
Escherichia coli [2] = conditions: Indian Perfumer, 28(2), 82-87 (1984); cited from earlier work
skin = conditions: conventional use in acne vulgaris; cited from earlier work
various molds = conditions: J. Antibact. Antifung. Agents, 8(1), 3-6 (1980); cited from earlier work
Bacillus subtilis = conditions: J. Antibact. Antifung. Agents, 8(1), 3-6 (1980); cited from earlier work
Escherichia coli [3] = conditions: J. Antibact. Antifung. Agents, 8(1), 3-6 (1980); cited from earlier work
Pseudomonas aeruginosa = conditions: J. Antibact. Antifung. Agents, 8(1), 3-6 (1980); cited from earlier work
[4] = Cutibacterium acnes, ATCC11827, anaerobic, 37° C., 48 hours, turbidity at 600 nm, read-out: MIC

Compound	MIC [1, 4] [µg/mL]	antimicrobial activity (several fungi)	antimicrobial activity (Escherichia coli [2])	also measured
C=CCc1ccc(O)c(OC)c1 [Eugenol, reference compound]	50 (≈ 304 µM)	strong antimicrobial activity	strong antimicrobial activity	–
C=C1[C@H]2CC[C@@H]3[C@H]2C(C)(C)CCC[C@]13C [Longifolene]	1.57 (≈ 7.68 µM)	–	–	–
[H]/N=C(\N/C(=N/[H])NCCCCCCNC(=N)NC(=N)Nc1ccc(Cl)cc1)Nc1ccc(Cl)cc1 [Chlorhexidine Gluconate]	–	–	–	side effects (skin): side effects of causing erythema or exfoliation, causing extreme skin roughening and skin irritation
C=C1CC/C=C(/C)CC[C@@H]2[C@@H]1CC2(C)C [Caryophyllene]	–	no activity	no activity	MIC ([1]; Cutibacterium acnes, ATCC11827, 48 h): 3.13 µg/mL (≈ 15.3 µM)
CC1=CC[C@]2(C)CCCC(C)(C)[C@@]23C[C@@H]13 [Thujopsene]	6.25 (≈ 30.6 µM)	–	–	antimicrobial activity (various molds): any substantial antimicrobial activity on various molds, Bacillus subtilis, Escherichia coli, and Pseudomonas aeruginosa was not exhibited; antimicrobial activity (Bacillus subtilis): any substantial antimicrobial activity on various molds, Bacillus subtilis, Escherichia coli, and Pseudomonas aeruginosa was not exhibited; antimicrobial activity (Escherichia coli [3]): any substantial antimicrobial activity on various molds, Bacillus subtilis, Escherichia coli, and Pseudomonas aeruginosa was not exhibited; antimicrobial activity (Pseudomonas aeruginosa): any substantial antimicrobial activity on various molds, Bacillus subtilis, Escherichia coli, and Pseudomonas aeruginosa was not exhibited
Cedrene	–	–	–	MIC ([1]; anaerobic, 37° C., 48 hours, turbidity at 600 nm): 1.57 µg/mL

Reference: patent publication US5200429A, “Acne vulgaris treating” (Takasago International Corporation, priority 1990, dated 1993)
